Legend:
Format in all cases: functional
[1] = system: CAKI-1; experiment: Growth inhibition of human Caki1 cells after 48 hrs by sulforhodamine B assay; conditions: CAKI-1, 48 h
[2] = system: KM12; experiment: Growth inhibition of human KM12 cells after 48 hrs by sulforhodamine B assay; conditions: KM12, 48 h
[3] = system: A549; experiment: Growth inhibition of human A549/ATCC cells after 48 hrs by sulforhodamine B assay; conditions: A549, 48 h
[4] = system: PC-3; experiment: Growth inhibition of human PC3 cells after 48 hrs by sulforhodamine B assay; conditions: PC-3, 48 h
[5] = system: SF-539; experiment: Growth inhibition of human SF539 cells after 48 hrs by sulforhodamine B assay; conditions: SF-539, 48 h
[6] = system: NCI/ADR-RES; experiment: Growth inhibition of human NCI-ADR-RES cells after 48 hrs by sulforhodamine B assay
[7] = system: SK-MEL-28; experiment: Growth inhibition of human SK-MEL-28 cells after 48 hrs by sulforhodamine B assay; conditions: SK-MEL-28, 48 h
[8] = system: T47D; experiment: Growth inhibition of human T47D cells after 48 hrs by sulforhodamine B assay
[9] = system: SF-295; experiment: Growth inhibition of human SF295 cells after 48 hrs by sulforhodamine B assay; conditions: SF-295, 48 h
[10] = system: BT-549; experiment: Growth inhibition of human BT549 cells after 48 hrs by sulforhodamine B assay; conditions: BT-549, 48 h
[11] = system: TK-10; experiment: Growth inhibition of human TK10 cells after 48 hrs by sulforhodamine B assay; conditions: TK-10, 48 h
[12] = system: NCI-H522; experiment: Growth inhibition of human NCI-H522 cells after 48 hrs by sulforhodamine B assay; conditions: NCI-H522, 48 h
[13] = system: A498; experiment: Growth inhibition of human A498 cells after 48 hrs by sulforhodamine B assay; conditions: A498, 48 h
[14] = system: UACC-257; experiment: Growth inhibition of human UACC257 cells after 48 hrs by sulforhodamine B assay; conditions: UACC-257, 48 h
[15] = Growth inhibition of human M9-ENL1 cells after 24 hrs by trypan blue assay; conditions: M9-ENL1, 24 h
[16] = system: HOP-92; experiment: Growth inhibition of human HOP92 cells after 48 hrs by sulforhodamine B assay; conditions: HOP-92, 48 h
[17] = system: HCT-15; experiment: Growth inhibition of human HCT15 cells after 48 hrs by sulforhodamine B assay; conditions: HCT-15, 48 h
[18] = system: U-251; experiment: Growth inhibition of human U251 cells after 48 hrs by sulforhodamine B assay; conditions: U-251, 48 h
[19] = system: SNB-75; experiment: Growth inhibition of human SNB75 cells after 48 hrs by sulforhodamine B assay; conditions: SNB-75, 48 h
[20] = system: COLO 205; experiment: Growth inhibition of human COLO205 cells after 48 hrs by sulforhodamine B assay; conditions: COLO 205, 48 h
[21] = system: ACHN; experiment: Growth inhibition of human ACHN cells after 48 hrs by sulforhodamine B assay
[22] = system: CCRF-CEM; experiment: Growth inhibition of human CCRF-CEM cells after 48 hrs by sulforhodamine B assay
[23] = system: UO-31; experiment: Growth inhibition of human UO31 cells after 48 hrs by sulforhodamine B assay; conditions: UO-31, 48 h
[24] = Induction of apoptosis in human M9-ENL1 cells assessed as cell death after 24 hrs by Annexin V/PI or 7-AAD staining based flow cytometry; conditions: M9-ENL1, 24 h, read-out: LC50 (the source's name)
[25] = system: Malme-3M; experiment: Growth inhibition of human MALME-3M cells after 48 hrs by sulforhodamine B assay
[26] = system: 786-0; experiment: Growth inhibition of human 786-0 cells after 48 hrs by sulforhodamine B assay; conditions: 786-0, 48 h
[27] = system: RXF 393; experiment: Growth inhibition of human RXF393 cells after 48 hrs by sulforhodamine B assay; conditions: RXF 393, 48 h
[28] = system: MDA-MB-435; experiment: Growth inhibition of human MDA-MB-435 cells after 48 hrs by sulforhodamine B assay; conditions: MDA-MB-435, 48 h
[29] = system: LOX IMVI; experiment: Growth inhibition of human LOXIMVI cells after 48 hrs by sulforhodamine B assay
[30] = system: SR; experiment: Growth inhibition of human SR cells after 48 hrs by sulforhodamine B assay
[31] = system: UACC-62; experiment: Growth inhibition of human UACC62 cells after 48 hrs by sulforhodamine B assay; conditions: UACC-62, 48 h
[32] = system: SK-MEL-5; experiment: Growth inhibition of human SK-MEL-5 cells after 48 hrs by sulforhodamine B assay; conditions: SK-MEL-5, 48 h
[33] = system: OVCAR-8; experiment: Growth inhibition of human OVCAR8 cells after 48 hrs by sulforhodamine B assay; conditions: OVCAR-8, 48 h
[34] = system: SNB-19; experiment: Growth inhibition of human SNB19 cells after 48 hrs by sulforhodamine B assay; conditions: SNB-19, 48 h
[35] = system: K562; experiment: Growth inhibition of human K562 cells after 48 hrs by sulforhodamine B assay; conditions: K562, 48 h
[36] = system: OVCAR-5; experiment: Growth inhibition of human OVCAR5 cells after 48 hrs by sulforhodamine B assay; conditions: OVCAR-5, 48 h
[37] = system: OVCAR-4; experiment: Growth inhibition of human OVCAR4 cells after 48 hrs by sulforhodamine B assay; conditions: OVCAR-4, 48 h
[38] = system: NCI-H322M; experiment: Growth inhibition of human NCI-H322M cells after 48 hrs by sulforhodamine B assay
[39] = system: DU-145; experiment: Growth inhibition of human DU145 cells after 48 hrs by sulforhodamine B assay; conditions: DU-145, 48 h
[40] = system: HCT-116; experiment: Growth inhibition of human HCT116 cells after 48 hrs by sulforhodamine B assay; conditions: HCT-116, 48 h
[41] = system: MCF7; experiment: Growth inhibition of human MCF7 cells after 48 hrs by sulforhodamine B assay; conditions: MCF7, 48 h
[42] = system: NCI-H226; experiment: Growth inhibition of human NCI-H226 cells after 48 hrs by sulforhodamine B assay; conditions: NCI-H226, 48 h
[43] = system: SW-620; experiment: Growth inhibition of human SW620 cells after 48 hrs by sulforhodamine B assay; conditions: SW-620, 48 h
[44] = system: SK-OV-3; experiment: Growth inhibition of human SKOV3 cells after 48 hrs by sulforhodamine B assay; conditions: SK-OV-3, 48 h
[45] = system: MOLT-4; experiment: Growth inhibition of human MOLT4 cells after 48 hrs by sulforhodamine B assay; conditions: MOLT-4, 48 h
[46] = system: NCI-H23; experiment: Growth inhibition of human NCI-H23 cells after 48 hrs by sulforhodamine B assay; conditions: NCI-H23, 48 h
[47] = system: SF-268; experiment: Growth inhibition of human SF268 cells after 48 hrs by sulforhodamine B assay; conditions: SF-268, 48 h
[48] = system: MDA-MB-231; experiment: Growth inhibition of human MDA-MB-231 cells after 48 hrs by sulforhodamine B assay; conditions: MDA-MB-231, 48 h
[49] = system: SN12C; experiment: Growth inhibition of human SN12C cells after 48 hrs by sulforhodamine B assay
[50] = system: SK-MEL-2; experiment: Growth inhibition of human SK-MEL-2 cells after 48 hrs by sulforhodamine B assay; conditions: SK-MEL-2, 48 h
[51] = system: RPMI-8226; experiment: Growth inhibition of human RPMI8226 cells after 48 hrs by sulforhodamine B assay; conditions: RPMI-8226, 48 h
[52] = Potency index, ratio of compound effect to PTL effect for cytotoxicity against human M9-ENL1 cells
[53] = system: M14; experiment: Growth inhibition of human M14 cells after 48 hrs by sulforhodamine B assay; conditions: M14, 48 h
[54] = system: OVCAR-3; experiment: Growth inhibition of human OVCAR3 cells after 48 hrs by sulforhodamine B assay; conditions: OVCAR-3, 48 h
[55] = system: HT-29; experiment: Growth inhibition of human HT-29 cells after 48 hrs by sulforhodamine B assay; conditions: HT-29, 48 h
[56] = system: MDA-MB-468; experiment: Growth inhibition of human MDA-MB-468 cells after 48 hrs by sulforhodamine B assay; conditions: MDA-MB-468, 48 h
[57] = system: HCC 2998; experiment: Growth inhibition of human HCC2998 cells after 48 hrs by sulforhodamine B assay; conditions: HCC 2998, 48 h
[58] = system: NCI-H460; experiment: Growth inhibition of human NCI-H460 cells after 48 hrs by sulforhodamine B assay; conditions: NCI-H460, 48 h
[59] = system: HL-60(TB); experiment: Growth inhibition of human HL-60(TB) cells after 48 hrs by sulforhodamine B assay; conditions: HL-60, 48 h
[60] = system: Hs-578T; experiment: Growth inhibition of human Hs 578T cells after 48 hrs by sulforhodamine B assay

## C=C1C(=O)O[C@H]2[C@H]1CC/C(COC(=O)CCC(=O)N1CCC(C)CC1)=C\CC[C@@]1(C)O[C@@H]21
[1]
  GI50: 2.83 µM
[2]
  GI50: 12.1 µM
[3]
  GI50: 15.8 µM
[4]
  GI50: 13 µM
[5]
  GI50: 2.35 µM
[6]
  GI50: 13.1 µM
[7]
  GI50: 3.1 µM
[8]
  GI50: 5.45 µM
[9]
  GI50: 14.7 µM
[10]
  GI50: 1.82 µM
[11]
  GI50: 3.9 µM
[12]
  GI50: 1.5 µM
[13]
  GI50: 2.77 µM
[14]
  GI50: 3.57 µM
[15]
  GI50: 3.1 µM
[16]
  GI50: 2.05 µM
[17]
  GI50: 1.7 µM
[18]
  GI50: 16.7 µM
[19]
  GI50: 11.2 µM
[20]
  GI50: 2.94 µM
[21]
  GI50: 2.64 µM
[22]
  GI50: 1.4 µM
[23]
  GI50: 3.56 µM
[24]
  CC50: 4.1 µM
[25]
  GI50: 2.95 µM
[26]
  GI50: 6.64 µM
[27]
  GI50: 1.91 µM
[28]
  GI50: 4.84 µM
[29]
  GI50: 2.95 µM
[30]
  GI50: 2.72 µM
[31]
  GI50: 5.15 µM
[32]
  GI50: 7.17 µM
[33]
  GI50: 3.37 µM
[34]
  GI50: 14 µM
[35]
  GI50: 3.06 µM
[36]
  GI50: 6.36 µM
[37]
  GI50: 2.64 µM
[38]
  GI50: 17.6 µM
[39]
  GI50: 4.44 µM
[40]
  GI50: 1.69 µM
[41]
  GI50: 2.22 µM
[42]
  GI50: 3.51 µM
[43]
  GI50: 2.33 µM
[44]
  GI50: 26.8 µM
[45]
  GI50: 3.33 µM
[46]
  GI50: 5.24 µM
[47]
  GI50: 13.2 µM
[48]
  GI50: 7.13 µM
[49]
  GI50: 4.8 µM
[50]
  GI50: 13.1 µM
[51]
  GI50: 4.74 µM
[52]
  fold change (FC): 2
[53]
  GI50: 3.44 µM
[54]
  GI50: 4.32 µM
[55]
  GI50: 4.28 µM
[56]
  GI50: 1.06 µM
[57]
  GI50: 11.5 µM
[58]
  GI50: 16 µM
[59]
  GI50: 3.16 µM
[60]
  GI50: 20.4 µM

From ChEMBL document CHEMBL4033723, “Succinamide derivatives of melampomagnolide B and their anti-cancer activities” (2017)
